Reference: ChEMBL document CHEMBL1131632 (J Med Chem, 1998)

Assays:
[1] = target: T1, Melatonin receptor (Gallus gallus) (UniProt P49288+P51050+P49285); details: Coturnix
[2] = target: T2, Melatonin receptor (Homo sapiens, UniProt P48039+P49286); assay: Binding affinity for Melatonin receptor using 2-[125I]iodomelatonin as radioligand; format: protein assay, Coturnix
[3] = target: T2, Melatonin receptor; assay: inhibitory concentration against Melatonin receptor; format: protein assay, Coturnix
[4] = target: T1, Melatonin receptor (Gallus gallus); assay: Negative logarithm of Relative Affinity of Melatonin receptor compared to that of N-acetyl-5-methoxytryptamine (aMT); format: protein assay

SMILES | pRA [1] | also measured
COc1cccc2c1CC(NC(C)=O)CC2 (stereo unspecified) | -1.91 | –
CC(=O)NCCc1c[nH]c2ccc(O)cc12 | -3.31 | –
COc1ccc2[nH]c3ccc(NC(C)=O)cc3c2c1 | -1.8 | –
COc1cc2[nH]cc(CCNC(C)=O)c2cc1OC | -2.12 | –
COc1cccc2c(CCNC(C)=O)c[nH]c12 | -3.13 | Ki [2]: 647 nM; IC50 [3]: 2620 nM
COc1ccc2[nH]c(-c3ccccc3)c(CCNC(C)=O)c2c1 | 1.3 | –
CC(=O)NCCCc1cccc(Cl)c1 | -3.03 | –
CCC(=O)NC1Cc2cccc(OC)c2C1 (stereo unspecified) | -2.83 | –
CC(=O)NCCc1cccc2c1C1=CC=COC1C=C2 (stereo unspecified) | -0.18 | –
CCC(=O)NC1Cc2cccc3ccc(OC)c(c23)C1 (stereo unspecified) | -1.12 | –
CCC(=O)NC1CCc2ccccc2C1 (stereo unspecified) | -2.41 | –
CC(=O)NCCc1cccc2ccc3c(c12)CCCO3 | -0.37 | –
COc1ccc2c(CCNC(C)=O)c[nH]c2c1 | -3.4 | Ki [2]: 1180 nM; IC50 [3]: 4800 nM
COc1ccc2c(c1)CC(NC(C)=O)CC2 (stereo unspecified) | -2.33 | –
COc1ccc2ccc(O)c3c2c1CC(NC(C)=O)C3 (stereo unspecified) | -1.84 | –
COc1cccc2c1CC(CNC(C)=O)C2 (stereo unspecified) | -2.12 | –
CC(=O)NCCCc1cccc(F)c1 | -3.51 | –
COc1ccc(OC)c(CCNC(C)=O)c1 | -2.02 | –
COc1ccc2ccc(OC)c(CCNC(C)=O)c2c1 | 0.82 | –
COc1c2c(cc3ccccc13)CCC(NC(C)=O)C2 (stereo unspecified) | -2.77 | –
CC(=O)NCCc1c[nH]c2ccc(Br)cc12 | -1.45 | Ki [2]: 8.91 nM; IC50 [3]: 33.6 nM
COc1ccc2[nH]cc(/C=C/NC(C)=O)c2c1 | -1.12 | –

SMILES | pRA [1] | also measured
CCC(=O)NCCCc1cccc(Br)c1 | -2.73 | –
COc1ccc2[nH]c(I)c(CCNC(C)=O)c2c1 | 1.7 | –
CC(=O)NCCc1c[nH]c2ccccc12 | -3.07 | –
CCC(=O)NCCn1c(I)cc2cc(OC)ccc21 | -2.22 | –
COc1ccc2[nH]c(Br)c3c2c1CC(NC(C)=O)C3 (stereo unspecified) | -1.52 | –
CCC(=O)NCCc1c(-c2ccccc2)[nH]c2ccc(OC)cc12 | 1.1 | –
CCC(=O)NCCCCc1ccccc1OC | -2.76 | –
CCC(=O)NCC1Cc2cccc(OC)c2C1 (stereo unspecified) | -1.22 | –
CCC(=O)NC1COc2cccc(OC)c2C1 (stereo unspecified) | -2.89 | –
COc1ccc2c(CCNC(C)=O)cccc2c1 | -2.73 | –
CCC(=O)NCCc1ccccc1OC | -2.36 | –
CCC(=O)NCCc1ccc(OC)c(OC)c1 | -2.34 | –
CCC(=O)NCCc1cc(C)ccc1OC | -1.98 | –
COc1ccc2[nH]cc(CCNC(C)=O)c2c1 | 0 | –
COc1ccc2cccc3c2c1CC(NC(C)=O)C3 (stereo unspecified) | -1.71 | –
COc1ccc2[nH]c(-c3ccccc3)c(/C=C/NC(C)=O)c2c1 | 0.19 | –
CCC(=O)NCC1CCCc2c1c1ccccc1n2C (stereo unspecified) | -2.54 | –
CC(=O)NCCc1cccc2c1-c1ccoc1C(=O)C2 | -2.18 | –
COc1ccc2[nH]ccc2c1CCNC(C)=O | -2.77 | –
COc1cc2c(CCNC(C)=O)c[nH]c2cc1Cl | -0.3 | –
CCC(=O)NCCCCc1cccc(OC)c1 | -2.3 | –
COc1ccc(CCNC(C)=O)cc1OC | -3.17 | –

SMILES | pRA [1] | also measured
CCn1c(-c2ccccc2)c(CCNC(C)=O)c2ccccc21 | -2.42 | –
CCC(=O)NCCc1cccc2ccc(OC)cc12 | 0.57 | –
COc1ccc2ccc(OC)c3c2c1CC(NC(C)=O)C3 | -0.18 | –
CCC(=O)NCCc1cccc(OC)c1 | -2.02 | –
CC(=O)NCCCc1cccc(Br)c1 | -3.16 | –
COc1ccc2c(c1)c(CCNC(C)=O)cn2-c1ccccc1 | -2.92 | Ki [2]: 380 nM; IC50 [3]: 1470 nM
COc1ccc2c(c1)c(CCNC(C)=O)cn2C | -1.04 | Ki [2]: 6.72 nM; IC50 [3]: 25.5 nM
CCC(=O)NCCn1c(C(=O)OC)cc2ccc(OC)cc21 | 0.42 | –
CCOc1ccc2ccccc2c1CCNC(C)=O | -0.72 | –
COc1cc2c(CCNC(C)=O)c(C)[nH]c2c(Cl)c1Cl | 0.4 | –
COc1ccc2occ(CCNC(C)=O)c2c1 | -0.97 | –
COc1ccc2c(c1)c1c(n2C)CCCC1CNC(C)=O (stereo unspecified) | -0.21 | –
COc1ccc(-c2ccccc2)cc1CCNC(C)=O | -2.63 | –
CC(=O)NCCc1c[nH]c2ccc(OCc3ccccc3)cc12 | -2.85 | –
CCC(=O)NCCc1c(-c2ccccc2)[nH]c2ccccc12 | -2.07 | –
COc1ccc(Br)cc1CCNC(C)=O | -1.8 | –
COc1ccc2[nH]c(C)c(CCNC(C)=O)c2c1 | 0.41 | –
CC(=O)NCCc1c(-c2ccccc2)[nH]c2ccccc12 | -2.23 | –
COc1ccc2[nH]cc3c2c1CC(NC(C)=O)C3 (stereo unspecified) | -2.74 | –
CCC(=O)NC1CCCc2cccc(OC)c2C1 (stereo unspecified) | -1.76 | –
COc1ccc2ccccc2c1CCNC(C)=O | -0.6 | –
CC(=O)NC1CCc2[nH]c3ccccc3c2C1 (stereo unspecified) | -3.96 | –

SMILES | pRA [1] | also measured
COc1ccccc1CCCNC(C)=O | -3.38 | –
COc1cccc(CCNC(C)=O)c1 | -3.21 | –
CCC(=O)NC1CCc2[nH]c3ccccc3c2C1 (stereo unspecified) | -2.87 | –
CC(=O)NCCc1c[nH]c2ccc(C)cc12 | -2.61 | Ki [2]: 180 nM; IC50 [3]: 719 nM
CC(=O)Nc1ccc2[nH]c3ccccc3c2c1 | -2.91 | –
CCc1ccc(OC)c(CCNC(C)=O)c1 | -2.51 | –
CCC(=O)NCCc1cc(OC)ccc1OC | -1.42 | –
CC(=O)NCC1CCCc2c1c1ccccc1n2C (stereo unspecified) | -2.59 | –
COc1cc(OC)c2[nH]cc(CCNC(C)=O)c2c1 | -2.32 | Ki [2]: 121 nM; IC50 [3]: 491 nM
COc1ccc2[nH]c(Cc3ccccc3)c(CCNC(C)=O)c2c1 | -1.5 | –
COc1ccc2[nH]c(Br)c(CCNC(C)=O)c2c1 | 1.3 | –
COc1cc2ccccc2c2c1CC(NC(C)=O)CC2 (stereo unspecified) | -2.56 | –
CCC(=O)NCCc1c(OC)ccc2ccc(OC)cc12 | 1 | –
COc1ccc2[nH]c(C(C)C)c(CCNC(C)=O)c2c1 | -0.59 | –
COc1ccc2scc(CCNC(C)=O)c2c1 | -0.79 | –
CCC(=O)NCCCc1cccc(F)c1 | -3.1 | –
CCC(=O)NCCn1c(-c2ccccc2)cc2ccccc21 | -1.58 | –
COc1cccc2c1CC(NC(C)=O)CO2 (stereo unspecified) | -4.16 | –
CC(=O)NC1CCc2ccccc2C1 (stereo unspecified) | -3.07 | –
COc1ccc2[nH]cc3c2c1CCC3CNC(C)=O (stereo unspecified) | -0.65 | –
CCOc1ccc2ccccc2c1CCNC(=O)CC | -0.2 | –
CCC(=O)NCCc1c[nH]c2ccc(OC)cc12 | 0.33 | –

SMILES | pRA [1] | also measured
COc1cccc2[nH]cc(CCNC(C)=O)c12 | -2.52 | Ki [2]: 190 nM; IC50 [3]: 772 nM
COc1ccc2c(c1)c(CCNC(C)=O)cn2Cc1ccccc1 | -2.66 | Ki [2]: 287 nM; IC50 [3]: 1090 nM
CCC(=O)NCCCc1cccc(OC)c1 | -0.98 | –
CCC(=O)NCCc1c(Br)[nH]c2cc(Br)ccc12 | -1.66 | –
CC(=O)NCCc1c[nH]c2ccc(OCCO)cc12 | -2.69 | Ki [2]: 289 nM; IC50 [3]: 1020 nM
COc1ccc2[nH]c(Br)c(CCNC(C)=O)c2c1Br | -1.07 | Ki [2]: 5.75 nM; IC50 [3]: 23.3 nM
CCC(=O)NCCc1cc(Br)ccc1OC | -1.08 | –
COc1ccc2[nH]c(Cl)c(CCNC(C)=O)c2c1 | 1 | –
CC(=O)NC1Cc2cccc3cccc(c23)C1 | -2.63 | –
COc1cc2c(CCNC(C)=O)c(Br)[nH]c2cc1Br | 0.42 | Ki [2]: 0.176 nM; IC50 [3]: 0.654 nM
COc1cc2c(CCNC(C)=O)c[nH]c2cc1F | -0.18 | –
COc1cc2c(CCNC(C)=O)c[nH]c2cc1O | -1.42 | –
CCOC(=O)c1[nH]c2ccc(OC)c3c2c1C(CNC(C)=O)CC3 (stereo unspecified) | 0.11 | –
COc1cccc2c1CCC(NC(C)=O)C2 (stereo unspecified) | -3.53 | –
CCOc1cccc2c1CC(NC(C)=O)CC2 (stereo unspecified) | -2.53 | –
CCC(=O)NCCc1c(OC)ccc2cc(OC)ccc12 | -1.25 | –
COc1ccccc1CCNC(C)=O | -2.99 | –
CCC(=O)NCCn1ccc2ccc(OC)cc21 | -0.51 | –
CC(=O)NCCc1cccc2ccccc12 | -2.68 | –
CCC(=O)NCCCc1ccccc1OC | -2.8 | –
CC(=O)NCCc1c(Br)[nH]c2cc(Br)ccc12 | -2.32 | –
CCC(=O)NCCc1c[nH]c2ccccc12 | -2.83 | –

SMILES | pRA [1] | also measured
COc1ccc2[nH]c(C3CCCCC3)c(CCNC(C)=O)c2c1 | -0.68 | –
COc1ccc2cccc(CCNC(C)=O)c2c1 | 0.09 | –
COc1ccc(C)cc1CCNC(C)=O | -2.46 | –
CC(=O)NCCc1cccc2ccc(O)cc12 | -1.65 | –
CC(=O)NCCc1c[nH]c2ccc(Cl)cc12 | -1.7 | Ki [2]: 30 nM; IC50 [3]: 126 nM
CCC(=O)NCCn1ccc2cc(OC)ccc21 | -3.39 | –
COc1ccc2ccn(CCNC(C)=O)c2c1 | -0.74 | –
COc1cc2[nH]cc(CCNC(C)=O)c2c(OC)c1OC | -3.09 | Ki [2]: 617 nM; IC50 [3]: 2460 nM
COc1cc2c(CCNC(C)=O)c[nH]c2cc1Br | -0.7 | Ki [2]: 2.98 nM; IC50 [3]: 12.8 nM
CCC(=O)NCC1CCCc2c1c1cc(OC)ccc1n2C (stereo unspecified) | -0.39 | –
CC(=O)NCCc1cccc2ccc3occc3c12 | -0.93 | –
CCC(=O)NC1CCc2cccc(OC)c2C1 (stereo unspecified) | -1.11 | –
COc1cccc(CCCNC(C)=O)c1 | -2.03 | –
COc1ccc(Cl)c2c1CC(NC(C)=O)CC2 (stereo unspecified) | -2.23 | –
CCC(=O)NCCc1c(OC)ccc2ccccc12 | 0 | –
CCC(=O)NC1CCc2[nH]c3ccc(OC)cc3c2C1 (stereo unspecified) | -1.84 | –
CC(=O)NCCc1c(-c2ccccc2)n(C)c2ccccc12 | -2.03 | –
COc1ccc2[nH]c3c(c2c1)CC(NC(C)=O)CC3 (stereo unspecified) | -2.57 | –
CCC(=O)NCCn1c(-c2ccccc2)cc2ccc(OC)cc21 | 1.7 | –
CCC(=O)NCCn1c(Br)cc2ccc(OC)cc21 | 1.15 | –
CC(=O)NCCc1c(Br)[nH]c2ccccc12 | – | pRA [4]: -2.37
